From patent US20240316079A1, “USE OF AKR1C3-ACTIVATED COMPOUND” (OBI PHARMA, INC., priority 2021, published 2024)
Like-named read-outs stand apart in the source and are kept apart here.

Tests used:
[1] = test system: SNU-475; assay: In vitro proliferation assay, liver cancer cell line SNU-475; type: cell-based; conditions: Homo sapiens, 96 hours of drug exposure, AKR1C3 protein high, read-out: 3424 IC50
Method: (§1) IC50 was calculated as described above.

[2] = test system: C3A; assay: In vitro proliferation assay, liver cancer cell line C3A; type: cell-based; conditions: Homo sapiens, 96 hours of drug exposure, AKR1C3 protein high, read-out: 3424 IC50
Method: as §1

[3] = test system: SNU-182; assay: In vitro proliferation assay, liver cancer cell line SNU-182; type: cell-based; conditions: Homo sapiens, 96 hours of drug exposure, AKR1C3 protein Low, read-out: 3424 IC50
Method: as §1

[4] = test system: NCI-H1944; assay: In vitro proliferation assay, NSCLC cell line NCI-H1944; type: cell-based; conditions: Homo sapiens, 72 hours of drug exposure, read-out: 3424 IC50
Method: as §1

[5] = test system: NCI-H2228; assay: In vitro proliferation assay, NSCLC cell line NCI-H2228; type: cell-based, human
Method: as §1

[6] = test system: NCIH1755; assay: In vitro proliferation assay, NSCLC cell line NCIH1755; type: cell-based; conditions: Homo sapiens, NCI-H1755, 72 hours of drug exposure, read-out: 3424 IC50
Method: as §1

[7] = test system: NCI-H2110; assay: In vitro proliferation assay, NSCLC cell line NCI-H2110; type: cell-based; conditions: Homo sapiens, 72 hours of drug exposure, read-out: 3424 IC50
Method: as §1

[8] = test system: NCIH2106; assay: In vitro proliferation assay, NSCLC cell line NCIH2106; type: cell-based; conditions: Homo sapiens, 72 hours of drug exposure, read-out: 3424 IC50
Method: as §1

[9] = test system: H460 subcutaneous xenograft; type: in vivo, mice; conditions: 1 week off, Q7D × 2
Method: (§2) In vivo anti-tumor activity of 3424 was evaluated using GFP-expressing cancer cell lines in an orthotopic liver cancer model (HepG2) and a subcutaneous lung cancer model (H460) CDX models at AntiCancer, Inc (Beijing, China). Female athymic nude mice (6 weeks; BALB/c-nu, Beijing HFK Bioscience Co., Ltd., Beijing, China) were used in the studies. Each mouse was implanted with a HepG2-GFP tumor chunk (˜1 mm^3 in diameter) in the right lobe of the liver for tumor development or inoculated subcutaneously with H460-GFP tumor chunk (˜1 mm^3 in diameter). About 3-10 days later, whole mouse body scan was performed using FluorVivo Model-100 fluorescence imager (INDEC Biosystems, Inc., Los Altos, CA). Mice with similar fluorescent areas were selected and randomly grouped. Both cell lines expressed high level of AKR1C3. Prodrug 3424 was dosed intravenously (IV) at 1.25, 2.5 mg/kg or 5 mg/kg Q7D×2 for the HepG2 orthotopic model or at 0.625, 1.25 or 2.5 mg/kg for the H460 xenograft model with a regimen of Q7D×2, 1 week off, then Q7D×2 again. Sorafenib was used as the positive control in the HepG2 model and was dosed orally at 30 mg/kg with a regimen of QD×5×7 cycles. Taxol was used as the positive control in the H460 model and was administered at 15 mg/kg IV with a regimen of BIW×4. During the experiments, mice were observed daily and body weight was measured twice a week. Tumor burden was monitored twice a week either by caliper measurement (H460) or FluorVivo fluorescence imager (H460-GFP and HepG2-GFP).

[10] = test system: HepG2 orthotopic xenograft; type: in vivo, mice; conditions: for TGI: Day 34
Method: as §2

[11] = test system: A498 xenograft
Method: (§3) Death and observed clinical signs were recorded on the basis of the numbers of animals within each subset.

[12] = test system: SNU-16 xenograft
Method: as §3

[13] = test system: PA1280 PDX; assay: Pancreatic cancer PDX model PA1280; type: in vivo, mice
Method: Anti-tumor activity of 3424 in PDX models was assessed at CrownBio Bioscience (Beijing, China) Inc. using female BALB/c nude mice (6-7 weeks old, Beijing Anikeeper Biotech Co., Ltd, Beijing, China). Tumor fragments (PA1280, GA6201, LU2057 and LU2505) from stock mice inoculated with selected primary human cancer tissues (pancreatic, gastric cancer, and lung) were harvested and used for inoculation into BALB/c nude mice. Each mouse was inoculated subcutaneously for tumor development. Mice were allocated randomly into experimental groups when the average tumor size reached ˜100 mm^3) by using StudyDirector™ Ver 3.1.399.19 (Studylog Systems, Inc., S. San Francisco, CA, USA). Prodrug 3424 was administered IV at the indicated doses with a regimen of Q7D×3. Each group consisted of 5-6 mice. The grouping day was denoted as Day 0. Prodrug 3424 was administrated to the tumor-bearing mice from Day 0 through Days as indicated for each study.

[14] = test system: H460 cells; assay: Cytotoxicity in H460 cells in the absence or presence of AKR1C3 inhibitor 3021; conditions: Homo sapiens, NCI-H460, 2 h, read-out: IC50 (cytotoxicity)
Method: Exponentially growing cells were seeded 24 hours before the addition of test compounds. After addition of test compounds, the plates were incubated for the indicated hours at 37° C. in a standard tissue culture incubator. At the end of the experiment, the viable cells were detected using either a CellTiter Glo (CTG) assay kit or AlamarBlue^(28,29). […] For 3021 experiments, cells were pretreated with 3 μM of 3021 for 2 h prior to compound treatment under air. IC50 was calculated as described above.

[15] = 3424 2.5 mg/kg weekly IV for 4 doses

## C[C@H](OP(=O)(N1CC1)N1CC1)c1ccc([N+](=O)[O-])c(Oc2cccc(C(=O)N(C)C)c2)c1 [Compound 3424, (S)-1-(3-(3-N,N-dimethylaminocarbonyl)phenoxyl-4-mtrophenyl)-1-ethyl-N,N′-bis(ethylene)phosphoramidate]
[1]
  IC50: 15 nM
[2]
  IC50: 5 nM
[3]
  IC50: > 1000 nM
[4]
  IC50: 2.3 nM
[5]; Homo sapiens, NCI-H2228, 72 hours of drug exposure, read-out: 3424 IC50
  IC50: 0.21 nM
[5]; NCI-H2228 NSCLC line
  enhanced cytotoxicity in line expressing high AKR1C3 versus low/no AKR1C3: up to 5000 fold
[6]
  IC50: 8.2 nM
[7]
  IC50: 1.1 nM
[8]
  IC50: > 1000 nM
[9]; 3424 0.625 mg/kg i.v. Q7D × 2
  TGI: 60.2%
[9]; 3424 1.25 mg/kg i.v. Q7D × 2
  TGI: 67.2%
[9]; 3424 2.5 mg/kg i.v. Q7D × 2, 2.5 mg/kg
  TGI: 88%
[10]; 3424 1.25 mg/kg i.v. Q7D × 2
  TGI: 52.4%
[10]; 3424 2.5 mg/kg i.v. Q7D × 2
  complete regression rate: 80%
  TGI: 91.5%
[10]; 3424 5 mg/kg i.v. Q7D × 2
  complete regression rate: 100%
  TGI: 101.2%
[10]; mouse, in vivo
  body weight loss: no body weight loss
[11]; [15]
  TGI: 73%
[11]; A498 model, data not shown
  tolerability / body weight loss during treatment: no significant body weight loss
[12]; [15]
  TGI: 87.8%
[12]; 3424 5 mg/kg weekly IV for 4 doses
  TGI: 96.2%
[12]; SNU-16 model, data not shown
  tolerability / body weight loss during treatment: no significant body weight loss
[13]; 3424 2.5 mg/kg i.v. Q7D × 3
  TGI: 77.4%
[13]; PA1280, all tested doses
  tolerability / body weight loss: no body weight loss
[14]
  IC50: 4 nM
